According to US11105794B2, “In vitro nephrotoxicity screening assay” (Hoffmann-La Roche Inc., priority 2016, dated 2021):
l = locked nucleic acid (LNA); d = 2'-deoxy (DNA)

Assays:
[1] = system: Wistar Han Crl:WI(Han) male rats; assay: In vivo nephrotoxicity in rats; details: 40 mg/kg on days 1 and 8, assessed day 15, 40 mg/kg
Protocol: Purpose bred Wistar Han Crl:WI(Han) male rats obtained from Charles River Laboratories at 7 to 8 weeks of age were divided into groups of 4 (table 1, exp. A) or 8 (table 1, exp. B) based on body weight and acclimatized for at least 5 days before dosing. The animals were housed under standard environmental conditions ([…], relative humidity 50±20%, a light/dark cycle 12 h/12 h, pelleted food and water ad libitum), were offered enriched environment in an AAALAC accredited facility and were regularly and carefully monitored. All procedures were in accordance with the respective local regulations and according to the animal permissions granted by the Institutional Animal Care and Use Committee. Test compounds were formulated in isotonic sterile saline, sterile filtered (0.22 μm), and dosed at 40 mg/kg on days 1 and 8 (2.5 ml/kg) in the intrascapular region. Control group animals received saline as vehicle control. On day 15 animals were orally administered tap water (10 ml/kg), and urine was collected on ice for 6 hours in metabolic cages. […] On day 15 the rats were sacrificed by an intraperitoneal injection of pentobarbital and exsanguinated. Kidney cortex samples were collected and fixed by immersion in 10% neutral buffered formalin, embedded in paraffin, sectioned to 5 μm and stained with hematoxylin and eosin (H&). The H&E sections were then scanned at 20× magnification using an Aperio ScanScope AT™ (Leica Biosystems) scanner and pictures were then captured via ImageScope™ software from the scanned images. One or more of the following parameters were assessed kidney weight, serum creatinine, urine protein, KIM-1 protein in urine, KIM-1 mRNA, kidney degeneration/regeneration and relative tubulotoxicity grade.

PTEC-TERT1 cells [2] = assay: Morphological changes of PTEC-TERT1 cells upon oligonucleotide treatment; assay type: cell-based, human; details: 100 μM oligonucleotide, 7 days, bright field microscopy, vs saline
Protocol: PTEC-TERT1 cells were cultures as described in the “Materials and methods” section. To mimic the physiological exposure of renal tubules to circulating naked oligonucleotide (i.e. without assistance of delivery technology, herein termed gymnosis or gymnotic delivery), confluent monolayers of PTEC-TERT1 cells were exposed to an aqueous solution of 100 μM oligonucleotide. The medium was replaced every three days including 100 μM fresh oligonucleotide in the fresh medium.
After 7 days of treatment the morphological alterations in the treated cell cultures were investigated under bright field microscopy.

[3] = system: Primary human hepatocytes; assay: EGF assay, culture media of primary human hepatocytes; assay type: cell-based; details: 10 ng/ml EGF in medium;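 further: values as percent of saline vehicle control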
Protocol: Cryopreserved human hepatocytes were suspended in William's Medium E (WME) without phenol red (Sigma W-1878) supplemented with 10% fetal calf serum, penicillin (100 U/ml), streptomycin (0.1 mg/ml) at a density of approx. 1×10^6 cells/ml and seeded into collagen-coated 96-well plates (Becton Dickinson AG, Allschwil, Switzerland) at a density of 0.4×10^5 cells/well. Cells were pre-cultured for 3 to 4 h allowing for attachment to cell culture plates before start of treatment with oligonucleotides.
Before oligonucleotide treatment the seeding medium was replaced by 90 μl of serum free WME.
The total volume of each well was 100 μl. PBS served as vehicle control.
Human primary hepatocytes were cultivated as described in the “Materials and methods” section with addition of 10 ng/ml of EGF to the medium. At confluence the cells were treated with oligonucleotide as described in the “Materials and methods” section, in concentrations of 10 or 100 μM.
The medium was obtained at day 3, and the EGF level was measured according to the assay described in the “Materials and methods” section.

A549 cells = assay: Intracellular ATP assay, A549 cells transfected with oligonucleotide; assay type: cell-based, human; details: A549, 48 hours after transfection;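 further: ATP as percent of saline control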
Protocol: A549 cells (ATCC CCL-185) were cultivated according to the manufacturer's instructions in A549 medium [F-12K Nut Mix (Gibco, 21127-022), 1% penicillin/streptomycin (Gibco: 15140-122), 10% FBS (Gibco 16000-044)].
Prior to treatment with oligonucleotides the A549 cells were seeded in 96 well plates at 3′000 cells per well in A549 regular medium and grown until 60% confluence. […]
Each sample was tested in triplicate.
A549 were cultivated as described in the “Materials and methods” section. At after at 50-60% confluence the oligonucleotides were transfected into the cells using 0.5 μl Lipofectamin (Invitrogen, 11668-019) in 25 μl OptiMEM® (GIBCO 31985062) and 1 ng or 10 ng oligonucleotide in the same volume OptiMEM. The cells were incubated over night at 37° C. The medium was changed using A459 regular medium+10 ng/ml EGF. 48 hours after transfection the medium was collected for EGF measurements and the cells were harvested for ATP measurements.

PCSK9 mRNA = assay: Target knock down (PCSK9 mRNA levels) in PTEC-TERT1 cells; assay type: cell-based, human; details: normalized to PPIB
Protocol: For assessment of the target knock down (PCSK9 mRNA levels) total mRNA was extracted from the cells adding 100 μl of 1× RNA lysis mixture (QuantiGene® Sample Processing Kit, QS0101) directly into the wells according to the manufacturer's instructions. RNA lysis mixtures were kept at −80° C. until analysis. For gene expression analysis, 20 μl of lysates were mixed with an mRNA-capture magnetic beads sets (Panomics QuantiGene® Plex Set catalog #12697), incubated overnight, processed for branched DNA amplification and analyzed according to the manufacturer's instructions (Panomics QuantiGene® Plex Assay kit, QP1015). The PPIB probe was used as housekeeping gene for normalization. Average Fluoresence Intensity (FI) and standard deviation of 3 biological replicates were calculated and normalized on vehicle control. The results are shown in table 11, and represent the average of three identical treatments.

PTEC-TERT1 cells [4] = assay: EGF assay, supernatant of PTEC-TERT1 cells; details: for Toxicity grade: from EGF, assay window saline vs toxic reference compound 4-1
Protocol: Prior to treatment with oligonucleotides the PTEC-TERT1 were seeded into collagen I-coated 96-well plates (Corning, 356407) at a density of 40 000 and 20 000 cells/well respectively in PTEC medium and grown until confluence.
Oligonucleotides were dissolved in PBS and added to the cell culture at the given concentration, such as 10, 30 or 100 μM. The total volume of each well was 100 μl. PBS served as vehicle control.
When extra cellular markers, like EGF and KIM-1, were analyzed following the oligonucleotide treatment the medium was collected and stored at −20° C. until further analysis. […] The collected medium was stored at −20° C.
For analysis of human EGF, cell supernatants were thawed on ice, diluted 1:2 and 1:10 in sample dilution buffer (BioRad catalog # M60-009RDPD) and analyzed by Luminex®-based ELISA using human EGF beads (Bio-Plex Pro™ Human Cancer Biomarker Panel 2 EGF Set#171BC603M), or followed by analysis using the Bio-Plex® 200 Systems (BioRad) according to the manufacturer's instructions. Data are reported as mean concentrations and standard deviations of triplicate wells.

[5] = PTEC-TERT1, EGF 0 ng/ml in medium
[6] = PTEC-TERT1, EGF 10 ng/ml in medium
[7] = PTEC-TERT1, 6 days, 10 ng/ml EGF in medium, 25 μM
[8] = PTEC-TERT1, 6 days, 10 ng/ml EGF in medium, 100 μM
[9] = PTEC-TERT1, 6 days, No EGF in Medium, 25 μM
[10] = PTEC-TERT1, 6 days, No EGF in Medium, 100 μM
[11] = PTEC-TERT1, Day 3, 3 μM (Table 2)
[12] = PTEC-TERT1, Day 3, 10 μM (Table 2)
[13] = PTEC-TERT1, Day 3, 11 μM (Table 3)
[14] = PTEC-TERT1, Day 3, 30 μM (Table 2)
[15] = PTEC-TERT1, Day 3, 33 μM (Table 3)
[16] = PTEC-TERT1, Day 3, 100 μM (Table 2)
[17] = PTEC-TERT1, Day 3, 100 μM (Table 3)
[18] = PTEC-TERT1, Day 6, 3 μM (Table 2)
[19] = PTEC-TERT1, Day 6, 10 μM (Table 2)
[20] = PTEC-TERT1, Day 6, 30 μM (Table 2)
[21] = PTEC-TERT1, Day 6, 100 μM (Table 2)
[22] = PTEC-TERT1, Day 7, 11 μM (Table 3)
[23] = PTEC-TERT1, Day 7, 33 μM (Table 3)
[24] = PTEC-TERT1, Day 7, 100 μM (Table 3)
[25] = PTEC-TERT1, Day 10, 11 μM (Table 3)
[26] = PTEC-TERT1, Day 10, 33 μM (Table 3)
[27] = PTEC-TERT1, Day 10, 100 μM (Table 3)

For “TGCtacaaaacCCA (antisense TGCTACAAAACCCA; sugars from the 5' end l3 d8 l3, backbone and methylation of C not given here) [Compound 3-1]”, the “In vivo nephrotoxicity / in vivo grade of toxicity” value [1] was “Medium”, the morphological changes (PTEC-TERT1 cells [2]) was “formed irregular domes and vacuoles” and the EGF ([3]; day 3, 10 μM) was 227 % saline. The EGF ([3]; day 3, 100 μM) was 411 % saline, the ATP (A549 cells; 1 ng oligonucleotide) was 91 % saline and the ATP (A549 cells; 10 ng oligonucleotide) was 44 % saline. For the same substance, the “PCSK9 mRNA” value (PCSK9 mRNA; [5]) was 2.28 % of saline, the “PCSK9 mRNA” value (PCSK9 mRNA; [6]) was 1.46 % of saline and the EGF (PTEC-TERT1 cells [4]; [7]) was 245.0 pg/mL. It also gave an EGF (PTEC-TERT1 cells [4]; [8]) of 341.8 pg/mL, an EGF (PTEC-TERT1 cells [4]; [9]) of 6.3 pg/mL and an EGF (PTEC-TERT1 cells [4]; [10]) of 12.2 pg/mL. It also gave an EGF (PTEC-TERT1 cells [4]; [11]) of 70 % saline, an EGF (PTEC-TERT1 cells [4]; [12]) of 75 % saline and an EGF (PTEC-TERT1 cells [4]; [13]) of 151 % saline. The EGF (PTEC-TERT1 cells [4]; [14]) was 70 % saline, the EGF (PTEC-TERT1 cells [4]; [15]) was 213 % saline and the EGF (PTEC-TERT1 cells [4]; [16]) was 128 % saline. For the same substance, the EGF (PTEC-TERT1 cells [4]; [17]) was 207 % saline, the EGF (PTEC-TERT1 cells [4]; [18]) was 124 % saline and the EGF (PTEC-TERT1 cells [4]; [19]) was 137 % saline. It also gave an EGF (PTEC-TERT1 cells [4]; [20]) of 231 % saline, an EGF (PTEC-TERT1 cells [4]; [21]) of 2413 % saline and an EGF (PTEC-TERT1 cells [4]; [22]) of 168 % saline. It also gave an EGF (PTEC-TERT1 cells [4]; [23]) of 287 % saline, an EGF (PTEC-TERT1 cells [4]; [24]) of 493 % saline and an EGF (PTEC-TERT1 cells [4]; [25]) of 41 % saline. The EGF (PTEC-TERT1 cells [4]; [26]) was 138 % saline and the EGF (PTEC-TERT1 cells [4]; [27]) was 227 % saline.
With “GCtgtgtgagcttGG (antisense GCTGTGTGAGCTTGG; sugars from the 5' end l2 d11 l2, backbone and methylation of C not given here) [Compound 4-1]” the “In vivo nephrotoxicity / in vivo grade of toxicity” value [1] was “high and High and Sever tox”, the morphological changes (PTEC-TERT1 cells [2]) was “adopted a flattened and stable appearance” and the EGF ([3]; day 3, 10 μM) was 323 % saline. The EGF ([3]; day 3, 100 μM) was 985 % saline, the ATP (A549 cells; 1 ng oligonucleotide) was 93 % saline and the ATP (A549 cells; 10 ng oligonucleotide) was 51 % saline. For the same substance, the “PCSK9 mRNA” value (PCSK9 mRNA; [5]) was 6.84 % of saline, the “PCSK9 mRNA” value (PCSK9 mRNA; [6]) was 1.47 % of saline and the EGF (PTEC-TERT1 cells [4]; [7]) was 731.7 pg/mL. For the same substance, the EGF (PTEC-TERT1 cells [4]; [8]) was 1957.8 pg/mL, the EGF (PTEC-TERT1 cells [4]; PTEC-TERT1, 6 days, 10 μM oligonucleotide (Table 7)) was 2622 % saline and the Toxicity grade (PTEC-TERT1 cells [4]; PTEC-TERT1, 6 days, 10 μM) was 100. The EGF (PTEC-TERT1 cells [4]; PTEC-TERT1, 6 days, 30 μM oligonucleotide (Table 7)) was 7311 % saline, the Toxicity grade (PTEC-TERT1 cells [4]; PTEC-TERT1, 6 days, 30 μM) was 100 and the EGF (PTEC-TERT1 cells [4]; [9]) was 5.4 pg/mL. It also gave an EGF (PTEC-TERT1 cells [4]; [10]) of 5.3 pg/mL, an EGF (PTEC-TERT1 cells [4]; [11]) of 71 % saline and an EGF (PTEC-TERT1 cells [4]; [12]) of 116 % saline. For the same substance, the EGF (PTEC-TERT1 cells [4]; [13]) was 225 % saline, the EGF (PTEC-TERT1 cells [4]; [14]) was 302 % saline and the EGF (PTEC-TERT1 cells [4]; [15]) was 368 % saline. The EGF (PTEC-TERT1 cells [4]; [16]) was 1572 % saline, the EGF (PTEC-TERT1 cells [4]; [17]) was 484 % saline and the EGF (PTEC-TERT1 cells [4]; [18]) was 37 % saline. It also gave an EGF (PTEC-TERT1 cells [4]; [19]) of 222 % saline, an EGF (PTEC-TERT1 cells [4]; [20]) of 8398 % saline and an EGF (PTEC-TERT1 cells [4]; [21]) of 8899 % saline. The EGF (PTEC-TERT1 cells [4]; [22]) was 637 % saline, the EGF (PTEC-TERT1 cells [4]; [23]) was 983 % saline and the EGF (PTEC-TERT1 cells [4]; [24]) was 983 % saline. It also gave an EGF (PTEC-TERT1 cells [4]; [25]) of 1177 % saline, an EGF (PTEC-TERT1 cells [4]; [26]) of 1865 % saline and an EGF (PTEC-TERT1 cells [4]; [27]) of 1792 % saline.
